Here are results for 26 molecules from patent US11396517B1, “Exo-aza spiro inhibitors of menin-MLL interaction” (Janssen Pharmaceutica NV, priority 2017, dated 2022).

Read-outs that look alike come from different tables or passages of the source.

The target in one assay is T1, menin (Homo sapiens, UniProt O00255, T541A).
T1 construct: Menin (a.a. 1-610-6×his tag)
T1 sequence (O00255 with tags, fused parts or gaps T541A): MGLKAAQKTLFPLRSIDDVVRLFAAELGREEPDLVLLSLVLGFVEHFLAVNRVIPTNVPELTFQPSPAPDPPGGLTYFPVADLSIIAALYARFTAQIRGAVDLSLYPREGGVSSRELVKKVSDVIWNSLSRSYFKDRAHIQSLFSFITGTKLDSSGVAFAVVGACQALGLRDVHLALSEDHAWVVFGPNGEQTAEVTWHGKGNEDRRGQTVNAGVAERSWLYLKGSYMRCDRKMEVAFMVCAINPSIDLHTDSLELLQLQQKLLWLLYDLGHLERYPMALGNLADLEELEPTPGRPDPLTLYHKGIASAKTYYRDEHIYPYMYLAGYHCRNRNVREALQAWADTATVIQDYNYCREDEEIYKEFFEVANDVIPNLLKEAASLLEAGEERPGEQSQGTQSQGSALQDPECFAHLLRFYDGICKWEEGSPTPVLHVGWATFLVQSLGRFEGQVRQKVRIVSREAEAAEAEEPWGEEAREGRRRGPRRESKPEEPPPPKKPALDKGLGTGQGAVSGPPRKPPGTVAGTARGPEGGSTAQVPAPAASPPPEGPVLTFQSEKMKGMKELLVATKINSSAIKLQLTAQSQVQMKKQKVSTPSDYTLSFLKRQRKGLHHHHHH
Put plainly: Menin/MLL homogenous time-resolved fluorescence (HTRF) assay. It is filed as binding. Conditions: location 2; read-out: (2) location 2 Menin HTRF assay (IC50 (nM)). Put shortly:
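Terbium-labeled menin (aa 1-610, His-tagged; […]) preincubated 5 min with compound, then 75 nM FITC-MBM1 peptide for 15 min, ambient, Tris pH 7.5, 0.5% DMSO. HTRF 520/490 ratio; 11-point 3-fold titration; IC50 from % inhibition fit.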
On the technique in general: In TR-FRET formats the signal depends on donor and acceptor labels being close together.

Another assay relates to MOLM14. The assay can be described thus: Proliferation assay B (spheroid assay) MOLM14. It is filed as cell-based, human. Conditions: MOLM14 cells, confluence at day 8, absolute IC50, read-out: (3b) Spheroid assay MOLM14 (IC50(μM)) Assay B. Summed up:
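Leukemia cells grown as spheroids in ultra-low-attachment round-bottom wells with compound at 0.3% DMSO for 8 d at 37 °C. Confluence imaged at day 8 as spheroid size, normalized between DMSO and 1 μM staurosporine controls; absolute IC50 from sigmoidal fit with bounds fixed at 0 and 100%.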

In a further assay the test system is MV-4-11. The assay can be described thus: Proliferation assay B (spheroid assay) MV-4-11. It is filed as cell-based, human. Conditions: Homo sapiens, MV4-11, 192 h, MV-4-11 cells, confluence at day 8, absolute IC50; read-out: (3b) Spheroid assay MV-4--11 (IC50(μM)) Assay B. The procedure:
3b) Proliferation Assay B
The anti-proliferative effect of menin/MLL protein/protein interaction inhibitor test compounds was assessed in human leukemia cell lines. The cell lines MV-4-11 and MOLM14 harbor MILL translocations and express the MILL fusion proteins MLL-AF4 and MLL-AF9, respectively, as well as the wildtype protein from the second allele. […] K562 was used as a control cell line containing two MLL wildtype alleles in order to exclude compounds that display general cytotoxic effects.
MV-4-11 and MOLM14 were cultured in RPMI-1640 (Sigma Aldrich) supplemented with 10% fetal bovine serum (HyClone), 2 mM L-glutamine (Sigma Aldrich) and 50 μg/ml gentamycin (Gibco). K562 were propagated in RPMI-1640 (Sigma Aldrich) supplemented with 20% fetal bovine serum (HyClone), 2 mM L-glutamine (Sigma Aldrich) and 50 μg/ml gentamycin (Gibco).
In order to assess the anti-proliferative effects, 1,500 MV-4-11, 300 MOLM14 cells or 750 K562 cells were seeded in 200 μl media per well in 96-well round bottom, ultra-low attachment plates (Costar, catalogue number 7007). Cell seeding numbers were chosen based on growth curves to ensure linear growth throughout the experiment. Test compounds were added at different concentrations and the DMSO content was normalized to 0.3%. Cells were incubated for 8 d at 37° C. and 5% CO2. Spheroid like growth was measured in real-time by live-cell imaging (IncuCyteZOOM, Essenbio, 4× objective) acquiring images at day 8. Confluence (%) as a measure of spheroid size was determined using an integrated analysis tool.
In order to determine the effect of the test compounds over time, the confluence in each well as a measure of spheroid size, was calculated. Confluence […] at the beginning of the experiment (t=0) was used as baseline for the calculation.
Absolute IC50 values were calculated as percent change in confluence as follows:
LC=Low Control: cells treated with 1 μM of the cytotoxic agent staurosporin
HC=High Control: Mean confluence (%) (DMSO treated cells) % Effect=100−(100*(Sample−LC)/(HC−LC))
To determine the IC50 a curve is fitted to the plot of % Effect vs Log 10 compound concentration using a sigmoidal fit with a variable slope and fixing the maximum to 100% and the minimum to 0%.

For the molecule `Fc1ccc(NC2CC3(CCN(c4ncnc5sc(CC(F)(F)F)cc45)C3)C2)cc1` (mixture of isomers) [Compound 158], the IC50 (commonly the concentration at which inhibition is half-maximal) stood at 72.2 nM on menin; 1.98 µM in the assay with MOLM14 (Homo sapiens, MOLM-14, 192 h); 2.41 µM in the assay with MV-4-11.

With `N#Cc1ccccc1NC1CC2(CCN(c3ncnc4sc(CC(F)(F)F)cc34)C2)C1` (mixture of isomers) [Compound 162], the IC50 was 90 nM on menin; more than 3.75 µM in the assay on MOLM14 (Homo sapiens, MOLM-14, 192 h); 2.84 µM in the assay with MV-4-11.

As for `N#Cc1cccc(NC2CC3(CCN(c4ncnc5sc(CC(F)(F)F)cc45)C3)C2)c1` (mixture of isomers) [Compound 163], the IC50 on menin is 77.6 nM; in the assay on MOLM14 (Homo sapiens, MOLM-14, 192 h) it was more than 3.75 µM; with MV-4-11, more than 3.75 µM.

Consider `N#Cc1ccc(NC2CC3(CCN(c4ncnc5sc(CC(F)(F)F)cc45)C3)C2)cc1` (mixture of isomers) [Compound 164], for which the IC50 at menin came to 12.2 nM; in the assay with MOLM14 (Homo sapiens, MOLM-14, 192 h) it was 1.97 µM; in the assay on MV-4-11, 1.09 µM.

On to `CS(=O)(=O)N1CCC(CNC(=O)c2ccc(NC3CC4(CCN(c5ncnc6sc(CC(F)(F)F)cc56)C4)C3)cc2)CC1` (mixture of isomers) [Compound 177], for which the IC50 at menin was determined as 16.2 nM; with MOLM14 (Homo sapiens, MOLM-14, 192 h), 1.22 µM; with MV-4-11 it was 1.02 µM.

Turning to `Cn1nnc2ccc(NC3CC4(CCN(c5ncnc6sc(CC(F)(F)F)cc56)C4)C3)cc21` (mixture of isomers) [Compound 216], the IC50 on menin was 38 nM; in the assay with MOLM14 (Homo sapiens, MOLM-14, 192 h), more than 3.75 µM; in the assay with MV-4-11 it was more than 3.75 µM.

In the case of `CN1CCN(Cc2cc(NC3CC4(CCN(c5ncnc6sc(CC(F)(F)F)cc56)C4)C3)ccc2C#N)CC1` (mixture of isomers) [Compound 225], the IC50 at menin was found to be 22.7 nM; in the assay on MV-4-11 it was 1.95 µM.

`CNC(=O)c1ccc(NC2CC3(CCN(c4ncnc5sc(CC(F)(F)F)cc45)C3)C2)cc1NCCN(C)C` (mixture of isomers) [Compound 239]: the values for the IC50 on menin and with MV-4-11 were 33.6 nM and more than 3.75 µM, respectively.

In the case of `CN1CCN(c2cc(NC3CC4(CCN(c5ncnc6sc(CC(F)(F)F)cc56)C4)C3)ccc2C#N)CC1` (mixture of isomers) [Compound 240], the IC50 at menin worked out at 8.6 nM; with MV-4-11 it was 1.14 µM.

For the molecule `CNC(=O)c1ccc(NC2CC3(CCN(c4ncnc5sc(CC(F)(F)F)cc45)C3)C2)cc1CCCN1CCN(S(C)(=O)=O)CC1` (mixture of isomers) [Compound 251], the IC50 on menin is 171 nM; with MOLM14 (Homo sapiens, MOLM-14, 192 h) it was more than 3.75 µM; with MV-4-11, more than 3.75 µM.

Turning to `CNc1nc(N2CCC3(CC(Nc4ccc(C#N)cn4)C3)C2)c2cc(CC(F)(F)F)sc2n1` (mixture of isomers) [Compound 271], the IC50 was 22.5 nM on menin; more than 3.75 µM in the assay with MOLM14 (Homo sapiens, MOLM-14, 192 h); more than 3.75 µM in the assay with MV-4-11.

In the case of `O=c1[nH]c2cc(NC3CC4(CCN(c5ncnc6sc(CC(F)(F)F)cc56)C4)C3)ccc2o1` (mixture of isomers) [Compound 308], the IC50 on menin was 5.6 nM; in the assay on MOLM14 (Homo sapiens, MOLM-14, 192 h), more than 3.75 µM; in the assay on MV-4-11, 2.64 µM.

Turning to `FC(F)(F)Cc1cc2c(N3CCC4(CC(Nc5ccc6cnoc6c5)C4)C3)ncnc2s1` (mixture of isomers) [Compound 315], the IC50 on menin amounted to 4.2 nM; in the assay with MOLM14 (Homo sapiens, MOLM-14, 192 h), 3.41 µM; in the assay with MV-4-11, 1.22 µM.

For `O=c1[nH]c2ccc(NC3CC4(CCN(c5ncnc6sc(CC(F)(F)F)cc56)C4)C3)cc2[nH]1` (mixture of isomers) [Compound 319], the IC50 is 17.4 nM on menin; more than 3.75 µM in the assay with MOLM14 (Homo sapiens, MOLM-14, 192 h); more than 3.75 µM in the assay with MV-4-11.

With `O=C(c1ccc(NC2CC3(CCN(c4ncnc5sc(CC(F)(F)F)cc45)C3)C2)cc1)N1CCOCC1` (mixture of isomers) [Compound 333], the IC50 was determined as 10.3 nM at menin; 0.14 µM in the assay with MOLM14 (Homo sapiens, MOLM-14, 192 h); 0.12 µM in the assay on MV-4-11.

As for `Nc1nc(N2CCC3(CC(Nc4ccc5[nH]c(=O)oc5c4)C3)C2)c2cc(CC(F)(F)F)sc2n1` (mixture of isomers) [Compound 384], the IC50 is 32.6 nM at menin; 1.49 µM in the assay on MOLM14 (Homo sapiens, MOLM-14, 192 h); more than 3.75 µM in the assay on MV-4-11.

`CNc1nc(N2CCC3(CC(Nc4ccc5[nH]c(=O)oc5c4)C3)C2)c2cc(CC(F)(F)F)sc2n1` (mixture of isomers) [Compound 399]: the IC50 is 26.4 nM at menin; more than 3.75 µM with MOLM14 (Homo sapiens, MOLM-14, 192 h); more than 3.75 µM in the assay with MV-4-11.

In the case of `Cc1nc(N2CCC3(CC(Nc4ccc(CC#N)cc4)C3)C2)c2cc(CC(F)(F)F)sc2n1` (mixture of isomers) [Compound 404], the IC50 is 16.4 nM at menin; more than 3.75 µM with MOLM14 (Homo sapiens, MOLM-14, 192 h); more than 3.75 µM with MV-4-11.

Consider `CNC(=O)c1ccc(NC2CC3(CCN(c4ncnc5sc(CC(F)(F)F)cc45)C3)C2)cc1C#N` (mixture of isomers) [Compound 422], for which the IC50 was 34.1 nM on menin; more than 3.75 µM in the assay on MOLM14 (Homo sapiens, MOLM-14, 192 h); more than 3.75 µM in the assay with MV-4-11.

For the molecule `CN(C)CCNC(=O)c1ccc(NC2CC3(CCN(c4ncnc5sc(CC(F)(F)F)cc45)C3)C2)cc1` (racemic) [Compound 73], the IC50 at menin is 2.5 nM; with MOLM14 (Homo sapiens, MOLM-14, 192 h), 1.21 µM; in the assay with MV-4-11 it was 0.3 µM.

Regarding `CN1CCC(c2cc(NC3CC4(CCN(c5ncnc6sc(CC(F)(F)F)cc56)C4)C3)ccc2C#N)CC1` (racemic) [Compound 78], the IC50 was found to be 2.9 nM at menin; 0.48 µM in the assay on MOLM14 (Homo sapiens, MOLM-14, 192 h); 0.33 µM in the assay on MV-4-11.

With `CC(C)(NC1CCC2(C1)CN(c1ncnc3sc(CC(F)(F)F)cc13)C2)c1ccccc1` (racemic) [Compound 276], the IC50 on menin was 97.3 nM; with MOLM14 (Homo sapiens, MOLM-14, 192 h) it was more than 3.75 µM; in the assay on MV-4-11, 2.43 µM.

Consider `CNC(=O)c1ccc(NC2CC3(CCN(c4ncnc5sc(CC(F)(F)F)cc45)C3)C2)c(F)c1` (single isomer, unassigned) [Compound 67], for which the half-maximal inhibitory concentration (IC50) turned out to be 1 nM on menin; 0.62 µM with MOLM14 (Homo sapiens, MOLM-14, 192 h); 0.14 µM with MV-4-11.

For `CNC(=O)c1ccc(NC2CC3(CCN(c4ncnc5sc(CC(F)(F)F)cc45)C3)C2)nc1` (single isomer, unassigned) [Compound 72], the IC50 was found to be 2.8 nM on menin; 0.5 µM in the assay with MOLM14 (Homo sapiens, MOLM-14, 192 h); 0.23 µM with MV-4-11.

On to `CN(C)CCNC(=O)c1ccc(NC2CC3(CCN(c4ncnc5sc(CC(F)(F)F)cc45)C3)C2)cc1` (single isomer, unassigned) [Compound 75], for which the IC50 is 1.3 nM on menin, 0.46 µM with MOLM14 and 0.05 µM with MV-4-11.

As for `CS(=O)(=O)NCCCNC(=O)c1ccc(NC2CC3(CCN(c4ncnc5sc(CC(F)(F)F)cc45)C3)C2)nc1` (single isomer, unassigned) [Compound 275], the results for the IC50 on menin and in the assay with MV-4-11 were 2.4 nM and 1.09 µM, respectively.
